Data set [1] relates to Escherichia coli NIHJ. The data set can be described thus: Minimum inhibitory concentration, agar plate dilution method. Type of data set: cell-based. The text has this: (§1) Table 2 sets out the activities of six of the compounds of the present invention against various bacteria, in terms of their minimal inhibitory concentrations (μg/ml). These compounds are identified by the same numbers as used in Table 1 above.
(§2) Minimum Inhibitory Concentrations (μg/ml)
(§3) In the compounds used in Table 2, compounds 1, 15 and 27 have the (5R,6S) configuration, and compounds 2, 16 and 28 have the (1R,5S,6S) configuration. In all six of the compounds, the configuration of the hydroxy group in the side-chain at position 6 is (1R).

The subject of data set [2] is Enterobacter cloacae 963. Described as above. It counts as cell-based.
Description: as §1, §2, §3

For data set [3], the system named is Serratia marcescens 1184. The description is as above. Type of data set: cell-based.
Description: as §1, §2, §3

Data set [4] deals with Staphylococcus aureus 209P. The data set is described as above. Type of data set: cell-based.
Description: as §1, §2, §3

Data set [5] has as its system Salmonella enteritidis. The description is as above. It counts as cell-based. Conditions: Salmonella enterica.
Description: as §1, §2, §3

Data set [6] deals with Staphylococcus aureus 56. The description is as above. It counts as cell-based.
Description: as §1, §2, §3

In data set [7] the test system is Klebsiella pneumoniae 846. Described as above. Type of data set: cell-based.
Description: as §1, §2, §3

The test system of data set [8] is Proteus vulgaris 1420. Described as above. Type of data set: cell-based.
Description: as §1, §2, §3

In data set [9] the test system is Klebsiella pneumoniae 806. Described as above. Type of data set: cell-based.
Description: as §1, §2, §3

Data set [10] concerns Escherichia coli 609. The description is as above. It counts as cell-based.
Description: as §1, §2, §3

In data set [11] the test system is mice. Kind of data set: Toxicity in mice (survival). It counts as in vivo.
For data set [12] the following is noted: cited from earlier work.
The test system of data set [13] is dehydropeptidase I. Conditions: in vivo in mammals; cited from earlier work.

Each structure is given as a SMILES string. In brackets after ≈: the same amount, converted by molar mass.

Consider `C[C@@H](O)[C@H]1C(=O)N2C(C(=O)O)=C(SCC(=N)N3CCNC(=O)C3)C[C@H]12` [Compound No. 1, (5R,6S)-2-[2-(3-Oxopiperazin-1-yl)-2-iminoethylthio]-6-[(1R)-1-hydroxyethyl]-1-carbapen-2-em-3-carboxylic acid], for which the MIC in [1] was 0.1 µg/mL (≈ 0.271 µM); in data set [2], 0.8 µg/mL (≈ 2.17 µM); in data set [3], 0.2 µg/mL (≈ 0.543 µM); in data set [4] it was at most 0.01 µg/mL; in data set [5], 0.1 µg/mL (≈ 0.271 µM); in data set [6], 0.05 µg/mL (≈ 0.136 µM). The MIC came to 0.1 µg/mL (≈ 0.271 µM) in [7], 1.5 µg/mL (≈ 4.07 µM) in [8], 0.2 µg/mL (≈ 0.543 µM) in data set [9] and 0.4 µg/mL (≈ 1.09 µM) in data set [10].
Consider `C[C@@H](O)[C@H]1C(=O)N2C(C(=O)O)=C(SCC(=N)N3CCNC(=O)C3)[C@H](C)[C@H]12` [Compound No. 2, (1R,5S,6S)-2-[2-(3-Oxopiperazin-1-yl)-2-iminoethylthio]-6-[(1R)-1-hydroxyethyl]-1-methyl-1-carbapen-2-em-3-carboxylic acid], for which the minimal inhibitory concentration (MIC) was 0.02 µg/mL (≈ 0.0523 µM) in data set [1]; 0.4 µg/mL (≈ 1.05 µM) in data set [2]; 0.1 µg/mL (≈ 0.261 µM) in data set [3]; at most 0.01 µg/mL in data set [4]; 0.05 µg/mL (≈ 0.131 µM) in data set [5]; 0.05 µg/mL (≈ 0.131 µM) in data set [6]. Moreover, the MIC worked out at 0.05 µg/mL (≈ 0.131 µM) in [7], 0.4 µg/mL (≈ 1.05 µM) in data set [8], 0.02 µg/mL (≈ 0.0523 µM) in data set [9] and 0.05 µg/mL (≈ 0.131 µM) in data set [10].
Turning to `C[C@@H](O)[C@H]1C(=O)N2C(C(=O)O)=C(SCC(=N)N3CCN(C)C(=O)C3)C[C@H]12` [Compound No. 3, (5R,6S)-2-[2-(4-Methyl-3-oxopiperazin-1-yl)-2-iminoethylthio]-6-[(1R)-1-hydroxethyl]-1-carbapen-2-em-3-carboxylic acid], the “dosage at which mice survive” value in [11] (mice) is on record as “above 2,000 mg/kg”.
As to `C[C@@H](O)[C@H]1C(=O)N2C(C(=O)O)=C(SCC(=N)N3CC[C@@H](OC(N)=O)C3)C[C@H]12` [Compound No. 15, (5R,6S)-2-{2-[(3R)-3-Carbamoyloxypyrrolidin-1-yl]-2-iminoethylthio}-6-[(1R)-1-hydroxyethyl]-1-carbapen-2-em-3-carboxylic acid], in [11] (mice), the “dosage at which mice survive” value is “above 2,000 mg/kg”. In addition, the minimal inhibitory concentration (MIC) is 0.1 µg/mL (≈ 0.251 µM) in data set [1]; 1.5 µg/mL (≈ 3.76 µM) in [2]; 0.1 µg/mL (≈ 0.251 µM) in [3]; at most 0.01 µg/mL in data set [4]; 0.02 µg/mL (≈ 0.0502 µM) in data set [6]; 0.05 µg/mL (≈ 0.125 µM) in data set [7]. The minimum inhibitory concentration (MIC) was found to be 1.5 µg/mL (≈ 3.76 µM) in [8], 0.1 µg/mL (≈ 0.251 µM) in [9] and 0.1 µg/mL (≈ 0.251 µM) in data set [10].
In the case of `C[C@@H](O)[C@H]1C(=O)N2C(C(=O)O)=C(SCC(=N)N3CC[C@@H](OC(N)=O)C3)[C@H](C)[C@H]12` [Compound No. 16, (1R,5S,6S)-2-{2-[(3R)-3-Carbamoyloxypyrrolidin-1-yl]-2-iminoethylthio}-6-[(1R)-1-hydroxyethyl]-1-methyl-1-carbapen-2-em-3-carboxylic acid], the MIC is 0.05 µg/mL (≈ 0.121 µM) in [1]; 0.8 µg/mL (≈ 1.94 µM) in data set [2]; 0.1 µg/mL (≈ 0.242 µM) in data set [3]; at most 0.01 µg/mL in data set [4]; 0.05 µg/mL (≈ 0.121 µM) in data set [6]; 0.1 µg/mL (≈ 0.242 µM) in data set [7]. In addition, the minimal inhibitory concentration (MIC) was 3.1 µg/mL (≈ 7.52 µM) in data set [8], 0.05 µg/mL (≈ 0.121 µM) in [9] and 0.1 µg/mL (≈ 0.242 µM) in [10].
For `C[C@@H](O)[C@H]1C(=O)N2C(C(=O)O)=C(SCC(=N)N3CCC(=NO)CC3)C[C@H]12` [Compound No. 27, (5R,6S)-2-[2-(4-Hydroxyiminopiperidin-1-yl)-2-iminoethylthio]-6-[(1R)-1-hydroxyethyl]-1-carbapen-2-em-3-carboxylic acid], in [11] (mouse, in vivo), the “dosage at which mice survive” value is listed as “above 2,000 mg/kg”. Further, the MIC is 0.1 µg/mL (≈ 0.261 µM) in data set [1]; 0.8 µg/mL (≈ 2.09 µM) in data set [2]; 0.1 µg/mL (≈ 0.261 µM) in [3]; at most 0.01 µg/mL in data set [4]; 0.02 µg/mL (≈ 0.0523 µM) in data set [6]; 0.05 µg/mL (≈ 0.131 µM) in [7]. In addition, the minimal inhibitory concentration (MIC) in data set [8] is 0.8 µg/mL (≈ 2.09 µM); in data set [9] it was 0.1 µg/mL (≈ 0.261 µM); in data set [10], 0.1 µg/mL (≈ 0.261 µM).
As to `C[C@@H](O)[C@H]1C(=O)N2C(C(=O)O)=C(SCC(=N)N3CCC(=NO)CC3)[C@H](C)[C@H]12` [Compound No. 28, (1R,5S,6S)-2-[2-(4-Hydroxyiminopiperidin-1-yl)-2-iminoethylthio]-6-[(1R)-1-hydroxyethyl]-1-methyl-1-carbapen-2-em-3-carboxylic acid], the minimal inhibitory concentration (MIC) was 0.02 µg/mL (≈ 0.0504 µM) in [1]; 0.4 µg/mL (≈ 1.01 µM) in [2]; 0.1 µg/mL (≈ 0.252 µM) in data set [3]; at most 0.01 µg/mL in data set [4]; 0.05 µg/mL (≈ 0.126 µM) in [6]; 0.05 µg/mL (≈ 0.126 µM) in [7]. In addition, the minimum inhibitory concentration (MIC) in data set [8] stood at 1.5 µg/mL (≈ 3.78 µM); in data set [9], 0.05 µg/mL (≈ 0.126 µM); in data set [10], 0.1 µg/mL (≈ 0.252 µM).
For the molecule `C[C@@H](O)[C@H]1C(=O)N2C(C(=O)O)=C(SCCN)C[C@H]12` [thienamycin, 2-(2-aminoethylthio)-6-(1-hydroxyethyl)carbapen-2-em-3-carboxylic acid], in data set [12], the “chemical stability in the human body” value is recorded as “poor”. Besides, the “inactivation by dehydropeptidase I” value in data set [13] is reported as “inactivated in vivo in mammals by dehydropeptidase I”.

In general, MIC refers to the lowest concentration found to suppress growth. A lower MIC goes with greater potency.

The record behind these values is US4771046A, “Carbapenem derivatives” (Sankyo Company, Limited, priority 1985, dated 1988).
